In patent US20100056606A1, “Combination therapy using budesonide and antisense oligonucleotide targeted to IL4-receptor alpha” (ISIS Pharmaceuticals, Inc., priority 2005, published 2010):

How the values were obtained:
[1] = system: mouse IL-4R alpha RNA; assay: Antisense inhibition of mouse IL-4R alpha mRNA in b.END cells, real-time PCR; format: cell-based; conditions: 24 hours
Method: The mouse brain endothelial cell line b.END was obtained from Dr. Werner Risau at the Max Plank Institute (Bad Nauheim, Germany). b.END cells were routinely cultured in DMEM, high glucose (Invitrogen Life Technologies, Carlsbad, Calif.) supplemented with 10% fetal bovine serum (Invitrogen Life Technologies, Carlsbad, Calif.). Cells were routinely passaged by trypsinization and dilution when they reached approximately 90% confluence. Cells were seeded into 96-well plates (Falcon-Primaria #353872, BD Biosciences, Bedford, Mass.) at a density of approximately 3000 cells/well for use in oligomeric compound transfection experiments.
When cells reach appropriate confluency, they are treated with oligonucleotide using Lipofectin™ as described. When cells reached 65-75% confluency, they were treated with oligonucleotide. Oligonucleotide was mixed with LIPOFECTIN™ Invitrogen Life Technologies, Carlsbad, Calif.) in Opti-MEM™-1 reduced serum medium (Invitrogen Life Technologies, Carlsbad, Calif.) to achieve the desired concentration of oligonucleotide and a LIPOFECTIN™ concentration of 2.5 or 3 […] oligonucleotide. This transfection mixture was incubated at room temperature for approximately 0.5 hours. For cells grown in 96-well plates, wells were washed once with 100 μL OPTI-MEM™-1 and then treated with 130 μL of the transfection mixture. Cells grown in 24-well plates or other standard tissue culture plates are treated similarly, using appropriate volumes of medium and oligonucleotide. Cells are treated and data are obtained in duplicate or triplicate. After approximately 4-7 hours of treatment at 37° C., the medium containing the transfection mixture was replaced with fresh culture medium. Cells were harvested 16-24 hours after oligonucleotide treatment.
Quantitation of IL-4R alpha mRNA levels was accomplished by real-time quantitative PCR using the ABI PRISM™ 7600, 7700, or 7900 Sequence Detection System (PE-Applied Biosystems, Foster City, Calif.) according to manufacturer's instructions.
Prior to quantitative PCR analysis, primer-probe sets specific to the target gene being measured were evaluated for their ability to be “multiplexed” with a GAPDH amplification reaction. After isolation the RNA is subjected to sequential reverse transcriptase (RT) reaction and real-time PCR, both of which are performed in the same well. RT and PCR reagents were obtained from Invitrogen Life Technologies (Carlsbad, Calif.). […] The RT reaction was carried out by incubation for 30 minutes at 48° C. Following a 10 minute incubation at 95° C. to activate the PLATINUM® Taq, 40 cycles of a two-step PCR protocol were carried out: 95° C. for 15 seconds (denaturation) followed by 60° C. for 1.5 minutes (annealing/extension).
Gene target quantities obtained by RT, real-time PCR were normalized using either the expression level of GAPDH, a gene whose expression is constant, or by quantifying total RNA using RiboGreen™ (Molecular Probes, Inc. Eugene, Oreg.). GAPDH expression was quantified by RT, real-time PCR, by being run simultaneously with the target, multiplexing, or separately. Total RNA was quantified using RiboGreen™ RNA quantification reagent (Molecular Probes, Inc. Eugene, Oreg.).
Probes and primers for use in real-time PCR were designed to hybridize to target-specific sequences. The target-specific PCR probes have FAM covalently linked to the 5′ end and TAMRA or MGB covalently linked to the 3′ end, where FAM is the fluorescent dye and TAMRA or MGB is the quencher dye.
A series of oligomeric compounds was designed to target different regions of mouse IL-4R alpha RNA, using SEQ ID NO: 5. All compounds are chimeric oligonucleotides (“gapmers”) 20 nucleotides in length, composed of a central “gap” region consisting of ten 2′-deoxynucleotides, which is flanked on both sides (5′ and 3′) by five-nucleotide “wings”. The wings are composed of 2′-O-(2-methoxyethyl) nucleotides, also known as 2′-MOE nucleotides. […]

[2] = system: OVA sensitized mice; assay: Ovalbumin induced allergic inflammation, acute model (AHR/Penh, BAL eosinophils); format: in vivo, mouse; conditions: for % Eosinophils (BAL) / Penh (100 mg/mL methacholine): day 28
Method: In the mouse model of allergic inflammation, mice are sensitized and challenged with aerosolized chicken ovalbumin (OVA). Airway responsiveness is assessed by inducing airflow obstruction using a noninvasive method whereby unrestrained conscious OVA sensitized mice are placed into the main chamber of a plethysmograph (Buxco Electronics, Inc. Troy, N.Y.) and challenged with aerosolized methacholine. Pressure difference between this chamber and a reference chamber is used to extrapolate minute volume, breathing frequency and enhanced pause (Penh). Penh is a dimensionless parameter that is a function of total pulmonary airflow (i.e. the sum of the airflow in the upper and lower respiratory tracts) during the respiratory cycle of a mouse and is […] when airflow is greater. This parameter closely correlates with lung resistance as measured by traditional, invasive techniques using ventilated animals (Hamelmann et al., 1997, Am. J. Respir. Crit. Care Med. 156:766-775).
The mouse model of allergic inflammation was used to test the efficacy of an inhaled antisense oligonucleotide targeted to mouse IL-4R alpha. A mismatched IL-4R alpha oligonucleotide (mismatch control oligonucleotide) was used as a negative control. Male Balb/c mice 8-10 weeks old (Charles River Laboratory, Taconic Farms, N.Y.) were maintained in micro-isolator cages housed in a specific pathogen free (SPF) facility. The sentinel cages within the animal colony surveyed negative for viral antibodies and the presence of known mouse pathogens.
For the acute model of allergic inflammation, mice were sensitized with 20 μg of alum-precipitated OVA was injected intraperitoneally on days 0 and 14. On days 24, 25 and 26, animals were exposed for 20 minutes to 1% OVA (in saline) by ultrasonic nebulization. On days 17, 19, 21, 24 and 26 animals were dosed with vehicle alone (saline), 1 μg/kg or 10 μg/kg of ISIS 231894 or the mismatch control oligonucleotide. Oligonucleotides or vehicle were suspended in 0.9% sodium chloride and delivered via inhalation using a nose-only aerosol delivery exposure system. A Lovelace nebulizer set at a flow rate of 1.4 liter per minute feeding into a total flow rate of 10 liters per minute was used to deliver the oligonucleotide. The exposure chamber was equilibrated with an oligonucleotide aerosol solution for 5 minutes before mice were placed in a restraint tube attached to the chamber. Restrained mice were treated for a total of 10 minutes. Analysis was performed on day 28.
Dendritic cells, eosinophils, macrophages and epithelial cells recovered from collagenase digested lung were analyzed for expression of IL-4R alpha protein by flow cytometry. […] A second experiment, in which mice were dosed with 10 μg/kg ISIS 231894, confirmed the efficacy of ISIS 231894 to decrease AHR and eosinophilia in the acute model.

[3] = system: OVA sensitized mice; assay: Acute allergic inflammation mouse model with inhaled budesonide and/or ISIS 231894; format: in vivo; conditions: 1 μg/kg ISIS 231894 alone (Table 9)
Method: In the mouse model of allergic inflammation, mice are sensitized and challenged with aerosolized chicken ovalbumin (OVA). Airway responsiveness is assessed by inducing airflow obstruction using a noninvasive method whereby unrestrained conscious OVA sensitized mice are placed into the main chamber of a plethysmograph (Buxco Electronics, Inc. Troy, N.Y.) and challenged with aerosolized methacholine. Pressure difference between this chamber and a reference chamber is used to extrapolate minute volume, breathing frequency and enhanced pause (Penh). Penh is a dimensionless parameter that is a function of total pulmonary airflow (i.e. the sum of the airflow in the upper and lower respiratory tracts) during the respiratory cycle of a mouse and is lower when airflow is greater.
The acute mouse model of allergic inflammation was used to determine if co-administration of inhaled IL-4R alpha antisense oligonucleotide would enhance the activity of inhaled budesonide, or reduce the dose required to produce anti-inflammatory activity. As described in Example 6, mice were sensitized with alum-precipitated OVA at day 0 and day 14 and nebulized with OVA in saline on days 24, 25 and 26. All mice were analyzed on day 28. Budesonide (0.3, 3, 30, and 300 μg/kg dissolved in PBS Containing 20% DMSO) was administered by nose-only aerosol exposure beginning on day 23 (24 and 20 hours before OVA exposure) and then daily through day 26, one hour prior to daily OVA exposure. The 30 μg/kg dose was also administered twice a day (bid) from day 23-26 as a separate group. As in Example 6, ISIS 231894 was administered by nose-only aerosol exposure at day 17, 19, 21, 23 and 26.
The effect of budesonide and/or ISIS 231894 treatment on AHR, BAL eosinophil infiltration and mucus accumulation (number of PAS-positive airways) were determined.

[4] = mouse, in vivo

## ISIS 231894: lead antisense oligonucleotide targeted to mouse IL-4R alpha; CCGCTGTTCTCAGGTGACAT; SEQ ID NO: 24; 2'-MOE gapmer, phosphorothioate (all phosphorothioate, sugars by position and methylation of C not given here; 2'-MOE gapmer)
[1]; 1 nM
  IL-4R alpha mRNA: 100 % of untreated control
[1]; 5 nM
  IL-4R alpha mRNA: 55 % of untreated control
[1]; 10 nM
  IL-4R alpha mRNA: 41 % of untreated control
[1]; 25 nM
  IL-4R alpha mRNA: 35 % of untreated control
[1]; 50 nM
  IL-4R alpha mRNA: 20 % of untreated control
[1]; 100 nM
  IL-4R alpha mRNA: 20 % of untreated control
[1]; compared to mismatch control
  mouse IL-4R alpha mRNA reduction (in words): dose-dependent mouse IL-4R alpha mRNA reduction
[2]
  eosinophil infiltration in BAL fluid, in words: significant decrease
  pulmonary function: lung resistance and compliance, in words: Significant improvement
[2]; 1 μg/kg inhaled
  % Eosinophils (BAL): 35%
  Penh (100 mg/mL methacholine): 6
[2]; 10 μg/kg inhaled
  % Eosinophils (BAL): 35%
  Penh (100 mg/mL methacholine): 4.5
[2]; 1 and 10 μg/kg inhaled
  methacholine-induced AHR (Penh, whole body plethysmography), in words: significant, dose dependent suppression
[3]
  % Eosinophils (BAL): 27%
  PAS+ airways (mucus accumulation): 21
  Penh (100 mg/mL methacholine): 6.2
[4]
  half life in the lung: 48 to 96 h
